According to patent US20250295686A1, “COMBINATION DECITABINE AND MPS1 INHIBITOR THERAPY TO PRIME CANCER IMMUNOGENICITY” (Dana-Farber Cancer Institute, Inc., priority 2021, published 2025):
pIC50: −log10 of the molar value. “Also recorded” adds a separate entry of the source.

Experiments:
H1944 cells [1] = test: Cell viability assay to determine an IC50 (CellTiter-Glo); assay type: cell-based, human
From the text: Due to their particular hypersensitivity, H1944 cells were utilized as a model system in which to conduct an unbiased screen of cytotoxic chemotherapies or targeted DNA-damaging agents for their ability to upregulate endogenous 2′3′-cGAMP production following pulse treatment, including cGAS-deficient H2122 cells as a counter-screen (FIGS. 3A and 3B). […] Additionally, hydroxyurea or nocodazole were included as controls to induce S-phase or M-phase cell cycle arrest. The IC50 was identified for each compound for cell viability in H1944 cells, and this concentration was utilized for the screen (FIG. 4A and Table 1). It was shown that each agent induced cellular cytotoxicity and/or DNA-damage response at this concentration, as measured by the induction of propidium iodide positive cells, cleaved PARP fragments, or histone TH2A.X expression (FIGS. 4B and 4C).
3000 cells were plated onto 96-well plates, and then cultured for 72 hours in the presence of each DNA-damaging agent at the indicated concentration. Values of CellTiter-Glo Luminescent Cell Viability assay (Promega) […] were normalized to vehicle treated cells. Plates were read on a Tecan Infinite M200 Pro plate reader and analysis was performed using Prism7 (GraphPad Software). All conditions were tested in triplicate.

H1944 cells [2] = test: Cell cycle analysis through propidium iodide staining; assay type: cell-based, human; conditions: 48 hours, 200 nM CFI-402257, 2.5 μM cisplatin, 5 μM etoposide, 500 nM pemetrexed, 50 μM hydroxyurea
From the text: For cell cycle analysis, cells were stained by BD CycleTEST™ Plus DNA according to the manufacturer's instructions, and then analyzed by FACSCanto 11 (BD Biosciences). For cell viability analysis, cells were stained by propidium iodide (PI) according to the manufacturer's instructions of Annexin V using Alexa Fluor 488 Annexin V dead cell apoptosis kit (Thermo Fisher Scientific, Cat. #V13245) and then analyzed by FACSCanto 11 (BD Biosciences).

STING pathway [3] = test: Pre-treatment with epigenetic inhibitor followed by pulse MPS1i in STING^Low KL cells (ELISA, immunoblot, immunofluorescence); assay type: cell-based, human
From the text: However, since KL cells epigenetically silence STING, unleashing STING expression might robustly sensitize them to MPS1 inhibition, including cell lines with baseline STING absence. Pre-treatment with the EZH2 inhibitor GSK126, which is able to de-repress STING in STING^Low KL cells lines, H1944, and H1355 cells, was explored (Kitajima et al., 2019) (FIGS. 8B and 8C).
(§1) Human IFN-β (Thermo Fisher Scientific, Cat. #414101), human CXCL10 (R&D systems, Cat. #DIP100), mouse CXCL10 (R&D systems, Cat. #DY466), and 2′3′-cGAMP (Cayman Chemical, Cat. #501700) ELISAs were performed according to the manufacturer's instructions. Conditioned media from each cell lines was collected after 24 hour culture. Values represent the average of four replicates from at least two independent experiments (biological replicates).
(§2) Cells were lysed in RIPA buffer containing 1× protease inhibitors (Roche, Cat #11-836-145-001) and phosphatase inhibitors (50 mmol/L NaF and 100 mmol/L Na3VO4). […] Imaging of blots and quantitation of bands was performed using the LICOR Odyssey system, or LAS-3000 (Fujifilm).
After being grown on chamber slides (CellTreat, Cat #229168) and subjected to various treatment conditions, cells were fixed and permeabilized according to standard protocols. […] Slides were imaged with the Nikon Eclipse 80i microscope, and colocalization was determined using CoLoc2 in ImageJ.

393P-KL cells = test: Efficacy studies in 393P-KL syngeneic model (129S2/SvPasCrl mice); assay type: in vivo, mouse; conditions: after 12 weeks; decitabine day 1-7 and/or BAY-1217389 day 8, 9, 21, 22; durable response = tumor volume less than 250 mm^3 for at least 50 days after treatment
Description: To test this, an efficacy study was performed utilizing the same short-term pulse regimen of the sequential therapy with DAC/MPS1i in 393P-KL syngeneic model. […] Additionally, to further assess the role of an intact immune system, immune-deficient NSG mice were used.

KL NSCLC cell lines = test: CXCL10 ELISA after exogenous CDN exposure, KL NSCLC cell lines; assay type: cell-based, human; conditions: 24 hours
From the text: Treatment with 2′3′-cGAMP or ADU-S100 was utilized to examine the sensitivity of KP or KL NSCLC cell lines to exogenous CDN exposure. […] KL cell response to extracellular CDNs was still modest as compared with endothelial cells (HUVEC) or monocytic THP-1 cells, which also have different membrane permeabilities (FIG. 2C) (Cordova et al., 2021; Luteijn et al., 2019; Ritchie et al., 2019).
as §1

STING pathway [4] = test: Immunoblot of STING downstream signaling in H1944 cells treated with MPS1 inhibitors; assay type: cell-based, human; conditions: 100 nM BAY-1217389, 250 nM CC-671, compared with 200 nM CFI-402257
Description: It was also shown that MPS1 inhibitor-induced cellular cytotoxicity was dependent upon intact STING and STAT1 (FIG. 3K).
On the other hand, reconstitution of STING in STING^absent KL cells such as A549 and H23 cells also sensitized them to MPS1 inhibition, leading to CXCL10 secretion and STAT1 activation (FIGS. 3J, 4H). It was determined that MPS1 inhibitor-induced cellular cytotoxicity and growth arrest in KL cells required activation of STING signaling following 48-hour pulse treatment, and to a lesser degree during continuous 96 hour SAC inhibition, which is also capable of arresting KP cells (FIGS. 3K, 4I-4K). […] Phosphorylation of TBK1 and IFN-β secretion, which are upstream of IFNAR1, were also attenuated by IFNAR1 depletion (FIGS. 3L, 4M, and 4N).
as §2

[5] = Homo sapiens, NCI-H1944, 72 hours with drug

| SMILES | pIC50 (H1944 cells [1]; [5]) | other results |
| --- | --- | --- |
| NC(=O)NO [hydroxyurea] | 4.46 | cell cycle status (H1944 cells [2]): induced S-phase arrest |
| CC[C@H](C)n1cc(C)c2c(C(=O)NCc3c(C)cc(C)[nH]c3=O)cc(-c3ccc(N4CCNCC4)nc3)cc21 [GSK126] |  | STING levels (STING pathway [3]; H1944 cells, 5 μM GSK126 combination with 200 nM CFI-402257): upregulated STING levels; CXCL10 and IFN-β secretion induced by pulse MPS1i treatment after pre-treatment (STING pathway [3]; H1944 or H1355 cells, 5 μM GSK126 pre-treatment, then 200 nM CFI-402257 or 100 nM BAY-1217389): markedly enhanced |
| Nc1ncn([C@H]2C[C@H](O)[C@@H](CO)O2)c(=O)n1 [decitabine] |  | durable, long-term response (393P-KL cells): 2/8 |
| N.N.[Cl][Pt][Cl] [cisplatin] |  | pIC50 (H1944 cells [1]; 72 hours with drug): 5.49; cell cycle status (H1944 cells [2]): strongly induced G2/M-arrest |
| Nc1nc2c(ncn2[C@@H]2O[C@@H]3COP(=O)(O)O[C@H]4[C@@H](O)[C@H](n5cnc6c(N)ncnc65)O[C@@H]4COP(=O)(O)O[C@@H]2[C@@H]3O)c(=O)[nH]1 [2′3′-cGAMP, 2′3′-cyclic GMP-AMP] |  | CXCL10 secretion, STING^Absent KL cell lines (KL NSCLC cell lines; A549, H23, A427, up to 100 μM): failed to respond; CXCL10 secretion, STING^Low KL cells (KL NSCLC cell lines; H1944, H2122, H647, H1355, 3.125-100 μM): dose-dependent manner |
| COC(=O)Nc1nc2ccc(C(=O)c3cccs3)cc2[nH]1 [nocodazole] | 7.22 |  |
| COc1ccc(Oc2cc(NCCC(F)(F)F)c3ncc(-c4ccc(C(=O)NC5CC5)c(C)c4)n3n2)c(F)c1F [BAY-1217389] |  | durable, long-term response (393P-KL cells): 0 mice; STING downstream signaling, cGAS-dependent (immunoblot) (STING pathway [4]): upregulated to the same extent; also recorded: induced similar cGAS dependent activation of STING signaling |
| CN(Cc1cnc2nc(N)nc(N)c2n1)c1ccc(C(=O)N[C@@H](CCC(=O)O)C(=O)O)cc1 [methotrexate] | 6.79 |  |
| COc1cc([C@@H]2c3cc4c(cc3[C@@H](O[C@@H]3O[C@@H]5CO[C@@H](C)O[C@H]5[C@H](O)[C@H]3O)[C@H]3COC(=O)[C@H]23)OCO4)cc(OC)c1O [etoposide] | 5.33 |  |
| CNC(=O)c1ccc(Nc2nc(OC3CCCC3)c3c(-c4ccc5nc(C)oc5c4)c[nH]c3n2)c(OC)c1 [CC-671] |  | STING downstream signaling, cGAS-dependent (immunoblot) (STING pathway [4]): upregulated to the same extent; also recorded: induced similar cGAS dependent activation of STING signaling |
| Nc1nc2[nH]cc(CCc3ccc(C(=O)N[C@@H](CCC(=O)O)C(=O)O)cc3)c2c(=O)[nH]1 [pemetrexed] | 6.21 | cell cycle status (H1944 cells [2]): induced S-phase arrest |

Second part, led by results:

| pIC50 (H1944 cells [1]; [5]) | SMILES | other results |
| --- | --- | --- |
| 6.80 | CCN(CCCOc1ccc2c(Nc3cc(CC(=O)Nc4cccc(F)c4)n[nH]3)ncnc2c1)CCOP(=O)(O)O [barasertib] |  |
| 7.16 | C=CCn1c(=O)c2cnc(Nc3ccc(N4CCN(C)CC4)cc3)nc2n1-c1cccc(C(C)(C)O)n1 [MK1775] |  |
| 5.41 | O=C(O)[C@]1(Cc2cccc(Nc3nccs3)n2)CC[C@@H](Oc2cccc(Cl)c2F)CC1 [MK5108] |  |
| 6.59 | Cc1cc(-c2cnn3c(NC[C@H]4C[C@@](C)(O)C4)cc(Oc4cccnc4)nc23)ccc1C(=O)NC1CC1 [CFI-402257] |  |
| 8.07 | CC[C@@H]1C(=O)N(C)c2cnc(Nc3ccc(C(=O)N[C@H]4CC[C@H](N5CCN(CC6CC6)CC5)CC4)cc3OC)nc2N1C(C)C [volasertib] |  |
| 7.65 | CCC1=C[C@@H]2CN(C1)Cc1c([nH]c3ccccc13)[C@@](C(=O)OC)(c1cc3c(cc1OC)N(C)[C@H]1[C@@](O)(C(=O)OC)[C@H](OC(C)=O)[C@]4(CC)C=CCN5CC[C@]31[C@@H]54)C2 [vinorelbine] |  |
| 5.97 | C[C@@H]1COCCN1c1cc(C2([S@](C)(=N)=O)CC2)nc(-c2cc[nH]c3nccc2-3)n1 [ceralasertib] |  |
| 4.56 | O=C(c1cc(Cc2n[nH]c(=O)c3ccccc23)ccc1F)N1CCN(C(=O)C2CC2)CC1 [olaparib] |  |
| 7.95 | COc1cccc(OCCCN)c1-c1cc(Nc2cnc(C#N)cn2)n[nH]1 [prexasertib] |  |
